The assay deals with SW-620 colorectal cancer cell line. As to the kind of experiment: MTT growth assay, SW-620. In kind it is cell-based. As to conditions: Homo sapiens, Table 1. From the text: The observed activity is greater than that previously seen for ML264.
(Tetrazolium assays rely on reduction of a dye to a coloured formazan, in cell work by metabolically active cells.)

On to `CS(=O)(=O)N1CCN(C(=O)CNC(=O)/C=C/c2ccc(Cl)c(Cl)c2)CC1` [Example 9, (E)-3-(3,4-dichlorophenyl)-N-(2-(4-(methylsulfonyl)piperazin-1-yl)-2-oxoethyl)acrylamide], for which the EC50 came out at 22 nM.

By EC50 is commonly meant the concentration needed to bring the measured effect to its halfway point. Read a low EC50 as higher potency in that assay.
